From article PMC6934184, “Selective DNA-PKcs inhibition extends the therapeutic index of localized radiotherapy and chemotherapy” (The Journal of Clinical Investigation, 2019)

Molecular target: T1, PIK3CD/PIK3R1 (p110δ/p85α) (Homo sapiens, UniProt O00329)
T1 construct: purchased Thermo Fisher Scientific (Life Technologies) SelectScreen
Assay: SelectScreen Adapta
Format: biochemical
Details: ATP Km app
Protocol: The in vitro kinase selectivity of NU5455 was determined using the SelectScreen Broad Assay Panel (Thermo Fisher Scientific) involving activity and binding assays (Supplemental Table 1). […] Class IA PI3Ks were measured using the p85α subunit.
Kinase [ATP] % Assay Kinase [ATP] % Assay Kinase [ATP] % Assay Kinase [ATP] % Assay […]
SGK (SGK1) Km app 8.5 Z MAP4K2 (GCK) Km app 2.7 Z TLK2 n/a -0.3 L STK38 (NDR) n/a -5.9 L
MERTK (cMER) Km app 8.3 Z CDK2/cyclin A Km app 2.7 Z TGFBR1 (ALK5) n/a -0.4 L MATK (HYL) Km app -6.3 Z
FYN Km app 8.3 Z EPHA1 Km app 2.7 Z CLK3 Km app -0.5 Z ABL1 E255K Km app -6.6 Z
TEC n/a 8.1 L CDK2/cyclin E1 n/a 2.7 L MAP3K14 (NIK) n/a -0.5 L STK17A (DRAK1) n/a -6.6 L
KIT V654A n/a 8.1 L TESK2 n/a 2.7 L AKT3 (PKB gamma) Km app -0.5 Z JAK2 JH1 JH2 Km app -6.7 Z
ROS1 Km app 8.0 Z SPHK1 Km app 2.7 A MAP3K9 (MLK1) Km app -0.5 Z PRKACB (PRKAC beta) n/a -6.8 L
FGFR3 K650E Km app 7.9 Z AMPK A2/B1/G1 Km app 2.6 Z IKBKB (IKK beta) Km app -0.6 Z PDGFRA (PDGFR alpha) Km app -6.8 Z
RAF1 (cRAF) Y340D Y341D 100 7.9 Z DYRK3 Km app 2.6 Z CAMK2A (CaMKII alpha) Km app -0.6 Z NEK9 Km app -7.2 Z
PI4KA (PI4K alpha) 10 7.8 A CSNK1D (CK1 delta) Km app 2.6 Z PRKCB1 (PKC beta I) Km app -0.7 Z PDK1 Km app -7.3 Z
HIPK2 Km app 7.8 Z ACVR2A n/a 2.5 L TTK n/a -0.7 L RPS6KB1 (p70S6K) Km app -7.8 Z
CSK Km app 7.6 Z DDR2 T654M n/a 2.5 L ZAK n/a -0.7 L STK38L (NDR2) n/a -8.4 L
PRKCG (PKC gamma) Km app 7.6 Z JAK2 Km app 2.5 Z IKBKE (IKK epsilon) Km app -0.7 Z ABL1 G250E Km app -8.5 Z
SRMS (Srm) Km app 7.5 Z HIPK3 (YAK1) Km app 2.5 Z CAMK2G (CaMKII gamma) n/a -0.8 L PRKD1 (PKC mu) Km app -8.5 Z
YES1 Km app 7.4 Z AMPK (A1/B1/G2) n/a 2.4 L TLK1 n/a -0.8 L CDK5/p35 Km app -8.6 Z
RPS6KA5 (MSK1) Km app 7.4 Z MYO3B (MYO3 beta) n/a 2.3 L MAPK12 (p38 gamma) Km app -0.8 Z PDGFRA T674I Km app -8.9 Z
TNIK n/a 7.3 L PASK Km app 2.3 Z PRKCI (PKC iota) Km app -0.8 Z BLK Km app -8.9 Z
FER Km app 7.1 Z ACVRL1 (ALK1) n/a 2.3 L PKN2 (PRK2) n/a -1.0 L PRKD2 (PKD2) Km app -9.1 Z
CDK16 (PCTK1)/cyclin Y n/a 7.0 L EGFR (ErbB1) L861Q Km app 2.2 Z PIM1 Km app -1.0 Z CSNK1G2 (CK1 gamma 2) Km app -9.3 Z
MST4 Km app 6.9 Z RPS6KA3 (RSK2) Km app 2.1 Z CDK5/p25 Km app -1.1 Z ROCK1 Km app -9.5 Z
FLT1 (VEGFR1) Km app 6.5 Z STK23 (MSSK1) Km app 2.0 Z SRPK1 Km app -1.1 Z PRKCB2 (PKC beta II) Km app -9.6 Z
DYRK1A Km app 6.4 Z ALK R1275Q n/a 2.0 L BRSK1 (SAD1) Km app -1.1 Z CSNK1G1 (CK1 gamma 1) Km app -9.9 Z
PRKCD (PKC delta) Km app 6.2 Z TBK1 Km app 2.0 Z MAP3K3 (MEKK3) n/a -1.1 L ABL2 (Arg) Km app -10.3 Z
EGFR (ErbB1) Km app 6.0 Z ACVR1B (ALK4) Km app 2.0 Z AMPK A1/B1/G1 Km app -1.2 Z STK3 (MST2) Km app -10.3 Z
CDC7/DBF4 n/a 6.0 L CDK3/cyclin E1 n/a 1.9 L WNK3 n/a -1.2 L CAMK4 (CaMKIV) Km app -10.4 Z
JAK3 Km app 6.0 Z KDR (VEGFR2) Km app 1.8 Z LATS1 n/a -1.3 L MKNK1 (MNK1) Km app -10.7 Z
MAPK13 (p38 delta) Km app 5.8 Z ULK1 n/a 1.8 L DMPK n/a -1.5 L FLT3 ITD n/a -11.6 L
FRAP1 (mTOR) Km app 5.7 Z AURKB (Aurora B) Km app 1.7 Z CDK2/cyclin A1 n/a -1.6 L CHEK2 (CHK2) Km app -11.7 Z
KIT Y823D n/a 5.6 L LRRK2 Km app 1.7 A LIMK1 n/a -1.7 L LTK (TYK1) Km app -13.1 Z
ITK Km app 5.5 Z MAP2K3 (MEK3) n/a 1.6 L DYRK1B Km app -1.8 Z JAK2 JH1 JH2 V617F Km app -13.8 Z
KIT Km app 5.3 Z DAPK1 Km app 1.6 A DDR1 n/a -1.8 L EPHA8 Km app -13.8 Z
CDK7/cyclin H/MNAT1 Km app 5.3 A EPHA6 n/a 1.6 L BTK Km app -2.0 Z EGFR (ErbB1) T790M L858R Km app -14.1 Z
RET Km app 5.2 Z MAP4K1 (HPK1) n/a 1.6 L ADRBK1 (GRK2) Km app -2.0 Z MET M1250T Km app -14.5 Z […]

T1 sequence (O00329 whole entry): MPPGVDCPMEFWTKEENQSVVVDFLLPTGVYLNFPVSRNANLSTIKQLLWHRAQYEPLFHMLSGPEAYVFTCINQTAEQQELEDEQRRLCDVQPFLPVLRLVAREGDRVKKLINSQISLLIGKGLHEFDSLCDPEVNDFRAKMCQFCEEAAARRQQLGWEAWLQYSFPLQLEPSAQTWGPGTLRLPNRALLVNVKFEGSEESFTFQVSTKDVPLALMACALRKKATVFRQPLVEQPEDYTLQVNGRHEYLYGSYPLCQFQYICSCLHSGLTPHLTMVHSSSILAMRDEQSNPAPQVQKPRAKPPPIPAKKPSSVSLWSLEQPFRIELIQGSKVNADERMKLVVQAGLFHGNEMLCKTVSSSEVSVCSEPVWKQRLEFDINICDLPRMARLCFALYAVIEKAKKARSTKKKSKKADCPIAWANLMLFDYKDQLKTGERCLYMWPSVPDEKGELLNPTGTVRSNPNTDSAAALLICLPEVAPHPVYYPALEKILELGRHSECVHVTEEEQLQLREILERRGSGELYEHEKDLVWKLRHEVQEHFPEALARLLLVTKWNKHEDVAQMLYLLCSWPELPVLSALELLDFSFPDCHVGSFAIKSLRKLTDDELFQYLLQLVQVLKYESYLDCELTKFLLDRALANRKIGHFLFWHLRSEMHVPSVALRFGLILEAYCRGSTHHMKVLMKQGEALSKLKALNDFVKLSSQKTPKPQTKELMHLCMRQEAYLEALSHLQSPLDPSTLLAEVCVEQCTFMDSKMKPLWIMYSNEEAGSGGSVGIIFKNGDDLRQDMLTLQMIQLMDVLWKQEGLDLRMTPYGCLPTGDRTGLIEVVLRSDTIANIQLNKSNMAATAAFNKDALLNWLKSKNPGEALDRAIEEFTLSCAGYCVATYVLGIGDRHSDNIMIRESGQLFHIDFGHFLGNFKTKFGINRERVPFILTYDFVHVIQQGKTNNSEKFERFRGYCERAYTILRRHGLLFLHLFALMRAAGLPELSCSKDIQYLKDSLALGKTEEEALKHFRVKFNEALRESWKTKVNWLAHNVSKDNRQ
T1 sequence (P27986 whole entry partner): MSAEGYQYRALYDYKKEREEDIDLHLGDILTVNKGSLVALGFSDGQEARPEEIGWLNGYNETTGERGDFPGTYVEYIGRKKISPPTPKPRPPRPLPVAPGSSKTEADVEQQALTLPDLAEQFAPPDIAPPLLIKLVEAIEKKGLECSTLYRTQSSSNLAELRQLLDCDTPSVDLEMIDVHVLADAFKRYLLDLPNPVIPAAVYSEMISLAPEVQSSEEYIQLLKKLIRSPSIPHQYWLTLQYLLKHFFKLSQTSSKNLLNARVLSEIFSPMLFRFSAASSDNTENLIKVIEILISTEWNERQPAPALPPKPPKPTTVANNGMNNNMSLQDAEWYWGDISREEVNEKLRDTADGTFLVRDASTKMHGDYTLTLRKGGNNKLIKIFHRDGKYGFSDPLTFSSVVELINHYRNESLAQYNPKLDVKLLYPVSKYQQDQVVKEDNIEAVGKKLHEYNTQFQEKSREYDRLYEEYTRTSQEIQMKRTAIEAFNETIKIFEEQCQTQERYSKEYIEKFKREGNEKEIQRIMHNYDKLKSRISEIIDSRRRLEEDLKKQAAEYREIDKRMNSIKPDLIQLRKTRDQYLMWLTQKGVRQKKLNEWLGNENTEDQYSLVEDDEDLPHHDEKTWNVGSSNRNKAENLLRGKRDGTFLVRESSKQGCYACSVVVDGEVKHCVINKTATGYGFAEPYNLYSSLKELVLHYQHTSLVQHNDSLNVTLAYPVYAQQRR

`CN(C(=O)CN1CCOCC1)c1ccc2sc3c(-c4cccc5c(=O)cc(N6CC7CCC(C6)O7)oc45)cccc3c2c1` [NU5455] was tested, and the “% inhibition” value (1 µM) was 57% and the inhibition at 1 µM was 57.5%.
